The source of these data is US8680134B2, “Triptans for the treatment of psoriasis” (priority 2009, dated 2014).

The subject of test [1] is psoriasis scales on both elbows. Nature of the test: Example 2: sumatriptan cream on left elbow versus carrier cream on right elbow in the same subject. It is filed as in vivo, human. An excerpt: A subject with scales on both elbows was recruited. The subject used twice daily for 5 days two different creams: • a.
The abovementioned design eliminates the mild possible therapeutic effect of an emollient on scales and healing. The mode of treatment eliminates as well the possibility of self healing or placebo effect.

For test [2], the system named is psoriasis lesions (scales) on elbow. Briefly: Example 1: topical sumatriptan cream on one elbow, then the other, in a subject with chronic psoriasis. The note with it: cream 0.04% w/w sumatriptan. The format is in vivo, human. The procedure: A subject with chronic psoriasis was administered a cream composed of 0.04% w/w sumatriptan, Dimethicon, Capric Caprylic triglyceride, Mineral oil, Cetyl alcohol & Glyceryl stearate & PEG-75 & Ceteth-20 & Steareth-20, Cetearyl alcohol, Shea butter, Glycerin, Triclosan, Propylene Glycol, Sodium Benzoate, Methylisothiazolinone in water. It was used for five days, once daily, on one elbow. […] No change was observed on psoriasis lesions on the untreated side. The subject was instructed to use the cream once daily on the complementary elbow.

“Also recorded” adds a separate entry of the source.

With `CNS(=O)(=O)Cc1ccc2[nH]cc(CCN(C)C)c2c1` [sumatriptan, 1-[3-(2-Dimethylaminoethyl)-1H-indol-5-yl]-N-methyl-methanesulfonamide], the “scales and skin condition of the treated (left) elbow” value in test [1] (cream 0.04% w/w sumatriptan (40 mg/100 ml), twice daily, four days after start of use, person) is “Disappearance of scales and skin return to normal is noted; also recorded: normalized the skin”. Besides, in test [1] (cream 0.04% w/w sumatriptan, left elbow), the “duration of remission of psoriasis on the treated elbow” value is listed as “about one”. Besides, the “additional time to completed skin normalization” value in test [1] (cream 0.04% w/w sumatriptan, left elbow, counted after the first four days) fell in the range of 4 to 5 days. Moreover, in test [2] (once daily for five days, one elbow), the “skin condition of the treated elbow” value was “Healthy skin with normalization was noted”. Moreover, the “scales on the treated elbow” value in test [2] (once daily for five days, one elbow, person with chronic psoriasis) is on record as “disappearance of scales was prominent on the treated side”. Further, the “skin normalization on the complementary elbow” value in test [2] (once daily, after scale disappearance) was “skin turned into normal within the next week”. Further, in test [2] (once daily, complementary elbow), the “time to scale disappearance on the complementary elbow” value is listed as “three”.
